PMC11173508, “Pharmacokinetics and Tissue Distribution of Itampolin A following Intragastric and Intravenous Administration in Rats Using Ultra-High-Performance Liquid Chromatography–Tandem Mass Spectrometry” (Molecules, 2024)
Where two headings read alike, the source gives them in different places.

Legend:
[1] = Pharmacokinetic study in rats after intragastric and intravenous administration (UHPLC-MS/MS of plasma); type: in vivo, Sprague–Dawley rats; conditions: for MRT inf: n = 6, read-out: MRT0–∞; for k el: n = 6, read-out: ke (converted); for bioavailability: F = Doseiv × AUCig/(Doseig × AUCiv) × 100%, read-out: absolute bioavailability (F)
Experimental: Sprague–Dawley rats (250 ± 20 g) were supplied from the Experimental Animal Centre of China Medical University (Shenyang, China) and housed under unified conditions. All of the animal experiments were conducted in compliance with the Guidelines for Care and Use of Laboratory Animals of China Medical University and the protocols were approved by the Animal Ethics Committee of the institution (code number: CMU2023205). The rats were raised in a standard environment with a temperature of 24 ± 2 °C, relative humidity of 55 ± 10%, and 12 h light/12 h dark cycles. These rats were acclimatized to the environment for at least one week before the experiment, provided free access to drinking water, and fed during this period. Twenty-four SD rats, which were divided into four groups (six rats per group), received 5 mg/kg itampolin A by intravenous administration or 10, 25, and 50 mg/kg itampolin A by intragastric administration for the pharmacokinetics experiments. Twenty SD rats (five rats for each time point) received 25 mg/kg itampolin A by intragastric administration for the tissue distribution study.
The simple protein precipitation extraction technique using methanol as the precipitating solvent was applied to extract itampolin A and IS from biological samples [23, 24]. The 100 µL of plasma sample, 50 µL of IS working solution, and 200 µL of methanol were added in 500 µL microcentrifuge tubes to precipitate proteins. After vortexing for 1 min, the samples were centrifuged at 12,000 rpm for 10 min to remove the denatured protein. Subsequently, the supernatant was transferred into another tube and evaporated to dryness with a stream of nitrogen at 35 °C. The remains were reconstituted in 100 µL of initial mobile phase, briefly vortexed, and centrifuged at 12,000 rpm for 10 min. Then, 10 µL of the supernatant was transferred to sampling vials for the UHPLC-MS/MS system.
For both intragastric and intravenous administration, itampolin A was dissolved in polyethylene glycol (PEG)-saline (1:3, PEG: 380–420) for the preparation of dosing solutions. Eighteen Sprague–Dawley rats were divided into three groups randomly (six rats each). The rats of each group were weighed, and then given a single dose of 10 mg/kg, 25 mg/kg, and 50 mg/kg itampolin A via intragastric administration, respectively. Blood samples (200 µL) were obtained from orbital vein into heparinized centrifuge tubes at 0.083, 0.25, 0.5, 0.75, 1, 1.5, 2, 3, 4, 6, 8, 12, and 24 h after drug administration.
Six Sprague–Dawley rats were weighed, and then given a single dose of 5 mg/kg of itampolin A via intravenous administration. Blood samples (200 µL) were obtained from orbital vein into heparinized centrifuge tubes at 0.033, 0.083, 0.167, 0.25, 0.5, 0.75, 1, 1.5, 2, 3, 4, 8, and 12 h after drug administration. The blood samples obtained from both intragastric and intravenous administration were immediately separated by centrifugation at 12,000 rpm for 10 min, and then the supernatant plasma was gathered and stored at −20 °C prior to analysis.
The pharmacokinetic parameters were calculated by non-compartmental model using the DAS 3.2.8 software. All data were presented as mean ± SD.

[2] = tested on: p38α; design: method as in PMID 30642059; conditions: binding to the DFG-out conformation of p38α; cited from earlier work
[3] = Sprague-Dawley, rat, iv, i.v. 5 mg/kg, plasma, mean ± SD, n = 6
[4] = Sprague-Dawley, rat, iv, i.v. 5 mg/kg, plasma, mean ± SD
[5] = Sprague-Dawley, rat, plasma, iv, 5 mg/kg, i.v. 5 mg/kg, mean ± SD, n = 6
[6] = Sprague-Dawley, rat, plasma, po, 10 mg/kg, i.g. low dose 10 mg/kg, mean ± SD, n = 6
[7] = Sprague-Dawley, rat, plasma, po, 25 mg/kg, i.g. mid dose 25 mg/kg, mean ± SD, n = 6
[8] = Sprague-Dawley, rat, plasma, po, 50 mg/kg, i.g. high dose 50 mg/kg, mean ± SD, n = 6
[9] = Sprague-Dawley, rat, po, i.g. high dose 50 mg/kg, plasma, mean ± SD, n = 6
[10] = Sprague-Dawley, rat, po, i.g. high dose 50 mg/kg, plasma, mean ± SD
[11] = Sprague-Dawley, rat, po, i.g. low dose 10 mg/kg, plasma, mean ± SD, n = 6
[12] = Sprague-Dawley, rat, po, i.g. low dose 10 mg/kg, plasma, mean ± SD
[13] = Sprague-Dawley, rat, po, i.g. mid dose 25 mg/kg, plasma, mean ± SD, n = 6
[14] = Sprague-Dawley, rat, po, i.g. mid dose 25 mg/kg, plasma, mean ± SD
[15] = i.g. high dose 50 mg/kg, plasma, mean ± SD, n = 6
[16] = i.g. low dose 10 mg/kg, plasma, mean ± SD, n = 6
[17] = i.g. mid dose 25 mg/kg, plasma, mean ± SD, n = 6
[18] = intragastric 10, 25 and 50 mg/kg

AUC(0-inf) [1, 3]: 2830 ± 110 ng·h/mL | AUC(0-t) [1, 3]: 978 ± 26.2 ng·h/mL | Cmax [1, 3]: 1340 ± 52.2 ng/mL | clearance [1, 3]: 30 mL/min/kg | MRT inf [1, 4]: 4.8 ± 0.3 h | Vd ([1]; Sprague-Dawley, rat, iv, i.v. 5 mg/kg, plasma, mean ± SD, n = 6, read-out: Vd): 6.6 ± 0.4 L/kg | k el [1, 4]: 7.5e-05 s⁻¹ | Tmax [1, 5]: 0.03 h | half-life [1, 5]: 156 ± 12 min | bioavailability ([1]; Sprague-Dawley, rat, plasma, oral dose 10 mg/kg vs i.v. 5 mg/kg): 18.8% | bioavailability ([1]; Sprague-Dawley, rat, plasma, oral dose 25 mg/kg vs i.v. 5 mg/kg): 13.7% | bioavailability ([1]; Sprague-Dawley, rat, plasma, oral dose 50 mg/kg vs i.v. 5 mg/kg): 11.2% | Tmax [1, 6]: 1.7 ± 0.2 h | half-life [1, 6]: 156 ± 18 min | Tmax [1, 7]: 1.7 ± 0.2 h | half-life [1, 7]: 138 ± 12 min | Tmax [1, 8]: 0.9 ± 0.1 h | half-life [1, 8]: 126 ± 12 min | half-life ([1]; Sprague-Dawley, rat, plasma, po, 50 mg/kg, intragastric 10, 25 and 50 mg/kg, range over the three doses): 126 to 156 min | Tmax ([1]; Sprague-Dawley, rat, plasma, po, 50 mg/kg, intragastric 10, 25 and 50 mg/kg, summary over the three doses): < 1.7 h | AUC(0-inf) [1, 9]: 3190 ± 94.7 ng·h/mL | AUC(0-t) [1, 9]: 2640 ± 44.6 ng·h/mL | Cmax [1, 9]: 807 ± 36.9 ng/mL | MRT inf [1, 10]: 3.7 ± 0.2 h | k el [1, 10]: 9.17e-05 s⁻¹ | AUC(0-inf) [1, 11]: 1080 ± 55.8 ng·h/mL | AUC(0-t) [1, 11]: 939 ± 34.9 ng·h/mL | Cmax [1, 11]: 283 ± 20 ng/mL | MRT inf [1, 12]: 4.6 ± 0.5 h | k el [1, 12]: 7.5e-05 s⁻¹ | AUC(0-inf) [1, 13]: 1940 ± 116 ng·h/mL | AUC(0-t) [1, 13]: 1540 ± 44.9 ng·h/mL | Cmax [1, 13]: 412 ± 13.7 ng/mL | MRT inf [1, 14]: 4.2 ± 0.3 h | k el [1, 14]: 8.33e-05 s⁻¹ | CL [1, 15]: 12.4 ± 0.4 L/h/kg | Vd [1, 15]: 44.6 ± 2.8 L/kg | CL [1, 16]: 11.1 ± 0.5 L/h/kg | Vd [1, 16]: 42.2 ± 2.9 L/kg | CL [1, 17]: 12.9 ± 0.8 L/h/kg | Vd [1, 17]: 43.9 ± 1.7 L/kg | correlation coefficient of AUC0–t versus dose (dose linearity) [1, 18]: 0.999 | correlation coefficient of AUC0–∞ versus dose (dose linearity) [1, 18]: 0.998 | correlation coefficient of Cmax versus dose (dose linearity) [1, 18]: 0.981
Structure (SMILES): COc1c(Br)cc(C[C@H](NC(=O)Cc2ccc(OCCCNC(C)=O)cc2)C(=O)NCCc2cc(Br)c(O)c(Br)c2)cc1Br [itampolin A, Itampolin A]
phospho-p38α expression [2]: decreasing the phospho-p38α expression
